From the Kinase Knowledgebase extract (Sharma et al. 2016)

Legend:
[1] = target: EGFR (human), P00533 [L858R]
EGFR (human) = EGFR (human) (UniProt P00533)
[2] = target: EGFR (Human), P00533 [Assessment of EGFR-Del T790M Dependent Cell Proliferation in BaF3 Cells]
[3] = target: EGFR (Human), P00533 [T790M/L858R]
[4] = target: EGFR (Human), P00533 [T790M/L858R]; conditions: baf3

Chain of EGFR (Human), P00533 [Assessment of EGFR-Del T790M Dependent Cell Proliferation in BaF3 Cells] (P00533 whole entry, looked up, stated change not applied): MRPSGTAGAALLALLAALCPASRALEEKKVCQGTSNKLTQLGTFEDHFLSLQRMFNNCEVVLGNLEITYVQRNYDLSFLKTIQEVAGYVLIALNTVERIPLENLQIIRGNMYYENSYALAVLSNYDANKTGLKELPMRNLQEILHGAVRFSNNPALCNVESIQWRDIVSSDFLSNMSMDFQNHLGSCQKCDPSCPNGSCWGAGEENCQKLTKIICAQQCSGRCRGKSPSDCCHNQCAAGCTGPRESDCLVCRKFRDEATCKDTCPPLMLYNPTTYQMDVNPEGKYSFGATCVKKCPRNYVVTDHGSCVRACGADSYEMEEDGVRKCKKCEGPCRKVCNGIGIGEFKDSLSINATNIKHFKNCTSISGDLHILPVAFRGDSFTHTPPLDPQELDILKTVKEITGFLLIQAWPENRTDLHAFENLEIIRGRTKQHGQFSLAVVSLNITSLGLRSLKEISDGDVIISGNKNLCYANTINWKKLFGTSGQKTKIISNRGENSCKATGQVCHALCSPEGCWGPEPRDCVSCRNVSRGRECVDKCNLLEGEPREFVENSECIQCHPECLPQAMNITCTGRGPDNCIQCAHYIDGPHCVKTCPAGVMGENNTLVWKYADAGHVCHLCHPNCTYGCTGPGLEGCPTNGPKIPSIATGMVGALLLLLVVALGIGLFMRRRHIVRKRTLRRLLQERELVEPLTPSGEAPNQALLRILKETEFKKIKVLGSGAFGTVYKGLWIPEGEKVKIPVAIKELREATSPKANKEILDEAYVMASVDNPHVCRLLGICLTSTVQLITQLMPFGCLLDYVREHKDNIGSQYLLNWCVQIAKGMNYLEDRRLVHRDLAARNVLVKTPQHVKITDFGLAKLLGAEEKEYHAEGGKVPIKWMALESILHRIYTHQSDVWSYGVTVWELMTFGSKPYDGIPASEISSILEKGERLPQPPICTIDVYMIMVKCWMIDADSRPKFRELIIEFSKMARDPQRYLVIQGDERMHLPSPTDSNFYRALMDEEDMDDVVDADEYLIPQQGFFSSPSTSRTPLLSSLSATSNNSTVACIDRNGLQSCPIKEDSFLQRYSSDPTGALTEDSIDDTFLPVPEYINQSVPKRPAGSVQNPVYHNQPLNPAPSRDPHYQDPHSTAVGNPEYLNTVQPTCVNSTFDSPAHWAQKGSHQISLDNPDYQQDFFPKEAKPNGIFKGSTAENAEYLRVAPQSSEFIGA
Chain of EGFR (human) (P00533 whole entry, looked up): as the sequence (P00533 whole entry, looked up, stated change not applied) above
Chain of EGFR (human), P00533 [L858R] (P00533 whole entry L858R, looked up): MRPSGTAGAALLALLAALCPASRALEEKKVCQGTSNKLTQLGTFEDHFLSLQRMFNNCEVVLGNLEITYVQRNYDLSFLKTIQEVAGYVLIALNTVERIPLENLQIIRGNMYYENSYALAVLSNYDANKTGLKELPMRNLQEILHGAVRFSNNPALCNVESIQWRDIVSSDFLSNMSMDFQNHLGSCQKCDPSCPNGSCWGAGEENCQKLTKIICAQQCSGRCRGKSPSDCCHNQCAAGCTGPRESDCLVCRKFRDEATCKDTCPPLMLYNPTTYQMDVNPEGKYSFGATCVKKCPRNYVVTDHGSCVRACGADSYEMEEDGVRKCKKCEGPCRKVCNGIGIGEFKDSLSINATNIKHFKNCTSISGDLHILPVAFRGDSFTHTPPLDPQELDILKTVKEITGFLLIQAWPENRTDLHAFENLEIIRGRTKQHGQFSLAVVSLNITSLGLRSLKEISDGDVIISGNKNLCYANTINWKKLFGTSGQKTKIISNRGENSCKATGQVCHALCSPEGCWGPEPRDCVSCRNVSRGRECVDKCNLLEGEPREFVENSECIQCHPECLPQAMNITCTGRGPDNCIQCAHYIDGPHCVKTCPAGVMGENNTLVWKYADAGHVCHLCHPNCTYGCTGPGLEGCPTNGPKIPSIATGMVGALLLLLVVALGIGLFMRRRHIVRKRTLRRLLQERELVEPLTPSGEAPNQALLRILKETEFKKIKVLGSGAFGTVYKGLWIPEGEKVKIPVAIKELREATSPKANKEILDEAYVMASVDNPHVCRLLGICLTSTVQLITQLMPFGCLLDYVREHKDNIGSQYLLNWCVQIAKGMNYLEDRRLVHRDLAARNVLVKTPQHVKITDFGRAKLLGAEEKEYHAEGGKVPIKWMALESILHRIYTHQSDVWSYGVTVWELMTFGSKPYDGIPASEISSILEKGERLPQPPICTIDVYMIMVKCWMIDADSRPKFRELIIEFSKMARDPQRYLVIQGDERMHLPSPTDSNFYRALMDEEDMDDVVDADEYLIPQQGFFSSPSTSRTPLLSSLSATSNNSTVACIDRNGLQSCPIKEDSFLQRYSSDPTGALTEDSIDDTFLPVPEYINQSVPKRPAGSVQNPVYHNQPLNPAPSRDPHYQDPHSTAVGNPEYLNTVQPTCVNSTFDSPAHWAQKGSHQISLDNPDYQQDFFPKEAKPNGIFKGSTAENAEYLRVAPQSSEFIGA
Chain of EGFR (Human), P00533 [T790M/L858R] (P00533 whole entry T790M/L858R, looked up): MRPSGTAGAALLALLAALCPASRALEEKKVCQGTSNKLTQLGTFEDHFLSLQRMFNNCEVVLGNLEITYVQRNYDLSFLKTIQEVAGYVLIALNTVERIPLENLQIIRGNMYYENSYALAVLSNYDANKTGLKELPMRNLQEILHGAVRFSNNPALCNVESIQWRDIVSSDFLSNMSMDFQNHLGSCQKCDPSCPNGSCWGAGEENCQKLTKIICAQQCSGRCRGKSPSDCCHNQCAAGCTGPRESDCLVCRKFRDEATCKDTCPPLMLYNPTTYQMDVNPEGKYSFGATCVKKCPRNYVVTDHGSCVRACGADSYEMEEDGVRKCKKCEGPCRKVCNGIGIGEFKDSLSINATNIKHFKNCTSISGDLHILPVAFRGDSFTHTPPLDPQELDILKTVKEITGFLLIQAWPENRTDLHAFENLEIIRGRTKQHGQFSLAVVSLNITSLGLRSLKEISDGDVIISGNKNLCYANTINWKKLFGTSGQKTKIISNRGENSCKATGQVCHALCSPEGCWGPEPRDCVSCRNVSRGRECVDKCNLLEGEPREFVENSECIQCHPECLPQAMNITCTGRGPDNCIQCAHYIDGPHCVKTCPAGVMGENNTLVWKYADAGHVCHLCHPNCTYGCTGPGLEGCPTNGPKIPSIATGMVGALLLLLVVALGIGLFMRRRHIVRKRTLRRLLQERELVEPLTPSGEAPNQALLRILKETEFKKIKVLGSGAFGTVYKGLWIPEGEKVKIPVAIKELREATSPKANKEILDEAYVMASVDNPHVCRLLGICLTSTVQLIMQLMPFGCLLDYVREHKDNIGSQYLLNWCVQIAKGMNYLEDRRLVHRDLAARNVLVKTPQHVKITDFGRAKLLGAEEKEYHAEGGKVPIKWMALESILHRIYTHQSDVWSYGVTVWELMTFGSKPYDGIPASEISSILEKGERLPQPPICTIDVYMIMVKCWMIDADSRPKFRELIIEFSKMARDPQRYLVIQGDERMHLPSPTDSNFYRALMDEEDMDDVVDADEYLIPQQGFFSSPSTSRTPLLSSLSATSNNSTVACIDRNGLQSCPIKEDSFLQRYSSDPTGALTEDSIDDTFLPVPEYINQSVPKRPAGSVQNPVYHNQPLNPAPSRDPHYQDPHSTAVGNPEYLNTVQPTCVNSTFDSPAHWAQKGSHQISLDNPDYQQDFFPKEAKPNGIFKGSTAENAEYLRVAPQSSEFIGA

SMILES	IC50 [1] [nM]	IC50 (EGFR (human)) [nM]	IC50 [2] [nM]	IC50 [3] [nM]	IC50 [4] [nM]
COc1cc(F)c(NC(=O)C#CCCN2CCCCC2)cc1Nc1ncc(Cl)c(Nc2ccccc2P(C)(C)=O)n1	< 50	< 50	< 50	< 50	< 50
C=CC(=O)Nc1cc(Nc2ncc(Cl)c(Nc3ccccc3P(C)(C)=O)n2)c(OC)cc1N1CCC(N2CCCCC2)C1 (stereo not given)	< 50	< 50	< 50	< 50	< 50
C=CC(=O)Nc1cc(Nc2ncc(Cl)c(Nc3ccccc3P(C)(C)=O)n2)c(OC)cc1OCCN1CCCCC1	< 50	< 50	< 50	< 50	< 50
COc1cc(N2CCCC2)c(NC(=O)C#CCCN2CCN(C)CC2)cc1Nc1ncc(Cl)c(Nc2ccccc2P(C)(C)=O)n1	< 50	< 50	101 to 250	< 50	101 to 250
C=C(CN1CCCCC1)C(=O)Nc1ccc(OC)c(Nc2ncc(Cl)c(Nc3ccccc3P(C)(C)=O)n2)c1	< 50	< 50	< 50	< 50	< 50
COc1ccc(NC(=O)/C=C/CN2CCCCC2)cc1Nc1ncc(Cl)c(Nc2ccccc2P(C)(C)=O)n1	< 50	< 50	< 50	< 50	< 50
C=CC(=O)Nc1cc(Nc2ncc(Cl)c(Nc3ccccc3P(C)(C)=O)n2)c(OC)cc1N1CC(N2CCCC2)C1	< 50	< 50	< 50	< 50	< 50
CCOC(=O)/C=C/C(=O)Nc1ccc(OC)c(Nc2ncc(Cl)c(Nc3ccccc3P(C)(C)=O)n2)c1	< 50	< 50	< 50	< 50	< 50
COCCC#CC(=O)Nc1cc(Nc2ncc(Cl)c(Nc3ccccc3P(C)(C)=O)n2)c(OC)cc1N1CCOCC1	< 50	< 50	< 50	< 50	< 50
COCC#CC(=O)Nc1cc(Nc2ncc(Cl)c(Nc3ccccc3P(C)(C)=O)n2)c(OC)cc1N1CCC(N(C)C)C1 (stereo not given)	< 50	< 50	< 50	< 50	< 50
C=C(C)C(=O)Nc1cc(Nc2ncc(Cl)c(Nc3ccccc3P(C)(C)=O)n2)c(OC)cc1N1CC[C@@H](N(C)C)C1	< 50	101 to 250	< 50	< 50	< 50
C=CC(=O)Nc1cc(Nc2ncc(Cl)c(Nc3ccccc3P(C)(C)=O)n2)c(OC)cc1N1CCC(N2CCOCC2)C1 (stereo not given)	< 50	< 50	< 50	< 50	< 50
C=CC(=O)Nc1cc(Nc2ncc(Cl)c(Nc3ccccc3P(C)(C)=O)n2)c(OC)cc1N1CCN(C2CCN(C)CC2)CC1	< 50	< 50	50 to 100	< 50	101 to 250
C=CC(=O)Nc1ccc(OC)c(Nc2ncc(OC)c(Nc3ccccc3P(C)(C)=O)n2)c1	< 50	50 to 100	< 50	< 50	50 to 100
C=CC(=O)Nc1cc(Nc2ncc(Cl)c(Nc3ccccc3P(C)(C)=O)n2)c(OC)cc1OCCN1CCCC1	< 50	< 50	< 50	< 50	< 50
C=CC(=O)Nc1ccc(OC)c(Nc2ncc(Cl)c(Nc3ccc(OCC4CCOCC4)cc3P(C)(C)=O)n2)c1	< 50	50 to 100	< 50	< 50	< 50
C=CC(=O)Nc1cc(Nc2ncc(Cl)c(Nc3ccccc3P(C)(C)=O)n2)c(OC)cc1N1CCC(N2CCCCC2)CC1	< 50	< 50	< 50	< 50	< 50
C=C(CN1CCN(S(C)(=O)=O)CC1)C(=O)Nc1ccc(OC)c(Nc2ncc(Cl)c(Nc3ccccc3P(C)(C)=O)n2)c1	< 50	< 50	< 50	< 50	< 50
C=C(CN1CCN(C)CC1)C(=O)Nc1ccc(OC)c(Nc2ncc(Cl)c(Nc3ccccc3P(C)(C)=O)n2)c1	< 50	< 50	< 50	< 50	< 50
C=CC(=O)Nc1ccc(OC)c(Nc2ncc(Cl)c(Nc3ccc(OC4CCOC4)cc3P(C)(C)=O)n2)c1 (stereo not given)	< 50	< 50	< 50	< 50	50 to 100
C=C(CN1CCN(CCO)CC1)C(=O)Nc1ccc(OC)c(Nc2ncc(Cl)c(Nc3ccccc3P(C)(C)=O)n2)c1	< 50	< 50	< 50	< 50	< 50
C=CC(=O)Nc1cc(Nc2ncc(Cl)c(Nc3ccccc3P(C)(C)=O)n2)c(OC)cc1OC1CCCN(CCOC)C1 (stereo not given)	< 50	< 50	< 50	< 50	< 50
C=CC(=O)Nc1cc(Nc2ncc(Cl)c(Nc3ccccc3P(C)(C)=O)n2)c(OC)cc1N1CCC(N2CCCC2)C1 (stereo not given)	< 50	< 50	< 50	< 50	< 50
COc1cc(N2CCOCC2)c(NC(=O)C#CCCN2CCCCC2)cc1Nc1ncc(Cl)c(Nc2ccccc2P(C)(C)=O)n1	< 50	< 50	< 50	< 50	< 50
C=C(CN1CCN(C(C)C)CC1)C(=O)Nc1ccc(OC)c(Nc2ncc(Cl)c(Nc3ccccc3P(C)(C)=O)n2)c1	< 50	50 to 100	< 50	< 50	< 50
C=CC(=O)Nc1ccc(OC)c(Nc2ncc(Cl)c(Nc3ccc(OCCOC)cc3P(C)(C)=O)n2)c1	< 50	50 to 100	< 50	< 50	50 to 100
COCC#CC(=O)Nc1cc(Nc2ncc(Cl)c(Nc3ccccc3P(C)(C)=O)n2)c(OC)cc1N1CCOCC1	< 50	< 50	< 50	< 50	< 50
C=CC(=O)Nc1ccc(Cl)c(Nc2ncc(Cl)c(Nc3ccccc3P(C)(C)=O)n2)c1	< 50	< 50	< 50	< 50	< 50
C=CC(=O)Nc1cc(Nc2ncc(Cl)c(Nc3ccccc3P(C)(C)=O)n2)c(OC)cc1N(C)CCN(C)CCF	< 50	< 50	< 50	< 50	< 50
COc1cc(F)c(NC(=O)C#CCN2CCCC2)cc1Nc1ncc(Cl)c(Nc2ccccc2P(C)(C)=O)n1	< 50	< 50	< 50	< 50	< 50

More lines, now with the values ahead:

IC50 [1] [nM]	IC50 (EGFR (human)) [nM]	IC50 [2] [nM]	IC50 [3] [nM]	IC50 [4] [nM]	SMILES
< 50	< 50	< 50	< 50	< 50	C=CC(=O)Nc1cc(Nc2ncc(Cl)c(Nc3ccccc3P(C)(C)=O)n2)c(C)cc1C#CCN(C)C
< 50	< 50	< 50	< 50	< 50	C=CC(=O)Nc1cc(Nc2ncc(Cl)c(Nc3ccccc3P(C)(C)=O)n2)c(OC)cc1N1CC[C@@H](N(C)C)C1
< 50	< 50	< 50	< 50	< 50	C=CC(=O)Nc1cc(Nc2ncc(Cl)c(Nc3ccccc3P(C)(C)=O)n2)c(OC)cc1C#CC(C)(C)N(CC)CC
< 50	< 50	< 50	< 50	< 50	C=CC(=O)Nc1cc(Nc2ncc(Cl)c(Nc3ccccc3P(C)(C)=O)n2)c(OC)cc1C#CC(C)(C)N(C)C
< 50	< 50	< 50	< 50	< 50	COc1cc(F)c(NC(=O)/C=C/Cl)cc1Nc1ncc(Cl)c(Nc2ccccc2P(C)(C)=O)n1
< 50	< 50	< 50	< 50	< 50	C=CC(=O)Nc1cc(Nc2ncc(Cl)c(Nc3ccccc3P(C)(C)=O)n2)c(OC)cc1N1CCCC(N(C)C)C1 (stereo not given)
< 50	< 50	< 50	< 50	< 50	C=CC(=O)Nc1cc(Nc2ncc(Cl)c(Nc3ccccc3P(C)(C)=O)n2)c(OC)cc1C#CCN1CCCCC1
< 50	< 50	50 to 100	< 50	101 to 250	C=CC(=O)Nc1cc(Nc2ncc(Cl)c(Nc3ccccc3P(C)(C)=O)n2)c(OC)cc1N1CCC(O)C1 (stereo not given)
< 50	< 50	< 50	< 50	< 50	C=CC(=O)Nc1cc(Nc2ncc(Cl)c(Nc3ccccc3P(C)(C)=O)n2)c(OC)cc1C#CCN(C)C
< 50	< 50	< 50	< 50	< 50	C=CC(=O)Nc1cc(Nc2ncc(Cl)c(Nc3ccccc3P(C)(C)=O)n2)c(OC)cc1O[C@@H](COC)CN(C)C
< 50	< 50	< 50	< 50	< 50	COc1cc(F)c(NC(=O)CCl)cc1Nc1ncc(Cl)c(Nc2ccccc2P(C)(C)=O)n1
< 50	< 50	< 50	< 50	< 50	C=CC(=O)Nc1cc(Nc2ncc(Cl)c(Nc3ccccc3P(C)(C)=O)n2)c(OC)cc1C#CCCN(C)C
< 50	< 50	< 50	< 50	< 50	C=CC(=O)Nc1cc(Nc2ncc(Cl)c(Nc3ccccc3P(C)(C)=O)n2)c(Cl)cc1OC(COC)CN(C)C (stereo not given)
